From the NIST ThermoML archive (doi:10.1021/je5002686)
Values joined by “and” are separate entries in the source; they are usually repeats but may differ in a detail not shown here. Identical values can stand only once. ± gives the expanded uncertainty stated by the source.

Conditions: Liquid, Vibrating tube method

CCOC(F)(C(F)(F)C(F)(F)C(F)(F)F)C(F)(C(F)(F)F)C(F)(F)F (centres undefined) [2-trifluoromethyl-3-ethoxydodecafluorohexane]
mass density (270 K, 490 kPa): 1678.1 ± 0.9 kg/m3 | mass density (270 K, 500 kPa): 1678.3 ± 0.9 kg/m3 | mass density (270 K, 990 kPa): 1679.2 ± 0.9 kg/m3 and 1679.3 ± 0.9 kg/m3 | mass density (270 K, 1000 kPa): 1679.2 ± 0.9 kg/m3 | mass density (270 K, 1990 kPa): 1681.3 ± 0.9 kg/m3 | mass density (270 K, 2000 kPa): 1681.5 ± 0.9 kg/m3 | mass density (270 K, 3000 kPa): 1683.4 ± 0.9 kg/m3 | mass density (270 K, 3010 kPa): 1683.6 ± 0.9 kg/m3 | mass density (270 K, 3990 kPa): 1685.5 ± 0.9 kg/m3 | mass density (270 K, 4000 kPa): 1685.6 ± 0.9 kg/m3 | mass density (270 K, 4990 kPa): 1687.5 ± 0.9 kg/m3 | mass density (270 K, 5000 kPa): 1687.7 ± 0.9 kg/m3 and 1687.5 ± 0.9 kg/m3 | mass density (270 K, 9990 kPa): 1697.3 ± 1 kg/m3 | mass density (270 K, 10000 kPa): 1697.3 ± 1 kg/m3 and 1697.4 ± 1 kg/m3 | mass density (270 K, 14990 kPa): 1706.5 ± 1.1 kg/m3 | mass density (270 K, 15000 kPa): 1706.5 ± 1.1 kg/m3 and 1706.6 ± 1.1 kg/m3 | mass density (270 K, 20000 kPa): 1715.1 ± 1.2 kg/m3 and 1715.2 ± 1.2 kg/m3 | mass density (270 K, 24990 kPa): 1723.4 ± 1.3 kg/m3 | mass density (270 K, 25000 kPa): 1723.3 ± 1.3 kg/m3 and 1723.5 ± 1.3 kg/m3 | mass density (270 K, 29990 kPa): 1731.3 ± 1.4 kg/m3 | mass density (270 K, 30000 kPa): 1731.1 ± 1.4 kg/m3 and 1731.2 ± 1.4 kg/m3 | mass density (270 K, 34990 kPa): 1738.7 ± 1.5 kg/m3 | mass density (270 K, 35000 kPa): 1738.6 ± 1.5 kg/m3 and 1738.7 ± 1.5 kg/m3 | mass density (270 K, 40000 kPa): 1745.7 ± 1.6 kg/m3 and 1745.8 ± 1.6 kg/m3 and 1745.9 ± 1.6 kg/m3 | mass density (270 K, 44990 kPa): 1752.7 ± 1.7 kg/m3 | mass density (270 K, 45000 kPa): 1752.6 ± 1.7 kg/m3 | mass density (270 K, 49960 kPa): 1759.2 ± 1.9 kg/m3 | mass density (270 K, 49970 kPa): 1759.2 ± 1.9 kg/m3 | mass density (270 K, 50000 kPa): 1759.4 ± 1.9 kg/m3 | mass density (290 K, 490 kPa): 1637.9 ± 0.9 kg/m3 | mass density (290 K, 500 kPa): 1638.1 ± 0.9 kg/m3 and 1638.2 ± 0.9 kg/m3 | mass density (290 K, 990 kPa): 1639.4 ± 0.9 kg/m3 and 1639.5 ± 0.9 kg/m3 | mass density (290 K, 1000 kPa): 1639.2 ± 0.9 kg/m3 | mass density (290 K, 1990 kPa): 1641.9 ± 0.9 kg/m3 | mass density (290 K, 2000 kPa): 1641.7 ± 0.9 kg/m3 and 1642 ± 0.9 kg/m3 | mass density (290 K, 2990 kPa): 1644.4 ± 0.9 kg/m3 | mass density (290 K, 3000 kPa): 1644.3 ± 0.9 kg/m3 and 1644.1 ± 0.9 kg/m3 | mass density (290 K, 3990 kPa): 1646.7 ± 0.9 kg/m3 and 1646.5 ± 0.9 kg/m3 | mass density (290 K, 4000 kPa): 1646.8 ± 0.9 kg/m3 | mass density (290 K, 4990 kPa): 1649.1 ± 0.9 kg/m3 | mass density (290 K, 5000 kPa): 1648.9 ± 0.9 kg/m3 and 1649.2 ± 0.9 kg/m3 | mass density (290 K, 9990 kPa): 1660.3 ± 1 kg/m3 and 1660.1 ± 1 kg/m3 and 1660.4 ± 1 kg/m3 | mass density (290 K, 15000 kPa): 1670.8 ± 1.1 kg/m3 and 1670.6 ± 1.1 kg/m3 | mass density (290 K, 19990 kPa): 1680.5 ± 1.1 kg/m3 and 1680.3 ± 1.1 kg/m3 | mass density (290 K, 20000 kPa): 1680.6 ± 1.1 kg/m3 | mass density (290 K, 25000 kPa): 1689.7 ± 1.2 kg/m3 and 1689.5 ± 1.2 kg/m3 | mass density (290 K, 30000 kPa): 1698.4 ± 1.3 kg/m3 | mass density (290 K, 30010 kPa): 1698.3 ± 1.3 kg/m3 | mass density (290 K, 34990 kPa): 1706.7 ± 1.5 kg/m3 | mass density (290 K, 35000 kPa): 1706.5 ± 1.5 kg/m3 | mass density (290 K, 35010 kPa): 1706.7 ± 1.5 kg/m3 | mass density (290 K, 40000 kPa): 1714.6 ± 1.6 kg/m3 and 1714.4 ± 1.6 kg/m3 and 1714.5 ± 1.6 kg/m3 | mass density (290 K, 44990 kPa): 1722.1 ± 1.7 kg/m3 | mass density (290 K, 45000 kPa): 1721.9 ± 1.7 kg/m3 and 1722.1 ± 1.7 kg/m3 | mass density (290 K, 49930 kPa): 1729.2 ± 1.8 kg/m3 | mass density (290 K, 49940 kPa): 1729.1 ± 1.8 kg/m3 | mass density (290 K, 49950 kPa): 1729 ± 1.8 kg/m3 | mass density (310 K, 490 kPa): 1597.2 ± 0.9 kg/m3 | mass density (310 K, 500 kPa): 1597.2 ± 0.9 kg/m3 and 1597.5 ± 0.9 kg/m3 | mass density (310 K, 990 kPa): 1598.7 ± 0.9 kg/m3 | mass density (310 K, 1000 kPa): 1598.7 ± 0.9 kg/m3 and 1599 ± 0.9 kg/m3 | mass density (310 K, 2000 kPa): 1601.6 ± 0.9 kg/m3 and 1601.9 ± 0.9 kg/m3 | mass density (310 K, 2990 kPa): 1604.8 ± 0.9 kg/m3 | mass density (310 K, 3000 kPa): 1604.5 ± 0.9 kg/m3 and 1604.4 ± 0.9 kg/m3 | mass density (310 K, 3990 kPa): 1607.3 ± 0.9 kg/m3 | mass density (310 K, 4000 kPa): 1607.2 ± 0.9 kg/m3 and 1607.6 ± 0.9 kg/m3 | mass density (310 K, 4990 kPa): 1609.9 ± 0.9 kg/m3 | mass density (310 K, 5000 kPa): 1610 ± 0.9 kg/m3 | mass density (310 K, 5010 kPa): 1610.3 ± 0.9 kg/m3 | mass density (310 K, 10000 kPa): 1622.9 ± 1 kg/m3 and 1623.3 ± 1 kg/m3 and 1623 ± 1 kg/m3 | mass density (310 K, 15000 kPa): 1634.8 ± 1 kg/m3 and 1635.2 ± 1 kg/m3 and 1634.9 ± 1 kg/m3 | mass density (310 K, 19990 kPa): 1645.8 ± 1.1 kg/m3 and 1645.9 ± 1.1 kg/m3 | mass density (310 K, 20000 kPa): 1646.2 ± 1.1 kg/m3 | mass density (310 K, 25000 kPa): 1656.1 ± 1.2 kg/m3 | mass density (310 K, 25010 kPa): 1656.5 ± 1.2 kg/m3 and 1656.2 ± 1.2 kg/m3 | mass density (310 K, 29990 kPa): 1665.8 ± 1.3 kg/m3 | mass density (310 K, 30000 kPa): 1666.2 ± 1.3 kg/m3 | mass density (310 K, 30010 kPa): 1665.7 ± 1.3 kg/m3 | mass density (310 K, 34990 kPa): 1674.8 ± 1.4 kg/m3 | mass density (310 K, 35000 kPa): 1674.9 ± 1.4 kg/m3 | mass density (310 K, 35010 kPa): 1675.3 ± 1.4 kg/m3 | mass density (310 K, 40000 kPa): 1683.5 ± 1.5 kg/m3 and 1683.9 ± 1.5 kg/m3 and 1683.6 ± 1.5 kg/m3 | mass density (310 K, 45000 kPa): 1691.7 ± 1.6 kg/m3 and 1692.2 ± 1.6 kg/m3 and 1691.8 ± 1.6 kg/m3 | mass density (310 K, 49970 kPa): 1699.6 ± 1.8 kg/m3 | mass density (310 K, 50010 kPa): 1699.6 ± 1.8 kg/m3 | mass density (310 K, 50050 kPa): 1700.1 ± 1.8 kg/m3 | mass density (330 K, 490 kPa): 1555.1 ± 0.9 kg/m3 | mass density (330 K, 500 kPa): 1555.2 ± 0.9 kg/m3 and 1555 ± 0.9 kg/m3 | mass density (330 K, 1000 kPa): 1556.9 ± 0.9 kg/m3 and 1556.7 ± 0.9 kg/m3 | mass density (330 K, 1990 kPa): 1560.4 ± 0.9 kg/m3 | mass density (330 K, 2000 kPa): 1560.2 ± 0.9 kg/m3 and 1560.3 ± 0.9 kg/m3 | mass density (330 K, 2990 kPa): 1563.6 ± 0.9 kg/m3 | mass density (330 K, 3000 kPa): 1563.8 ± 0.9 kg/m3 and 1563.7 ± 0.9 kg/m3 | mass density (330 K, 3990 kPa): 1567 ± 0.9 kg/m3 | mass density (330 K, 4000 kPa): 1567.1 ± 0.9 kg/m3 and 1566.9 ± 0.9 kg/m3 | mass density (330 K, 4990 kPa): 1570.2 ± 0.9 kg/m3 | mass density (330 K, 5000 kPa): 1570.3 ± 0.9 kg/m3 and 1570.1 ± 0.9 kg/m3 | mass density (330 K, 9990 kPa): 1585.3 ± 1 kg/m3 | mass density (330 K, 10000 kPa): 1585.1 ± 1 kg/m3 and 1585.2 ± 1 kg/m3 | mass density (330 K, 15000 kPa): 1598.9 ± 1 kg/m3 and 1598.7 ± 1 kg/m3 and 1598.8 ± 1 kg/m3 | mass density (330 K, 19990 kPa): 1611.3 ± 1.1 kg/m3 and 1611.2 ± 1.1 kg/m3 | mass density (330 K, 20000 kPa): 1611.2 ± 1.1 kg/m3 | mass density (330 K, 25000 kPa): 1622.9 ± 1.2 kg/m3 and 1622.6 ± 1.2 kg/m3 and 1622.7 ± 1.2 kg/m3 | mass density (330 K, 29990 kPa): 1633.5 ± 1.3 kg/m3 | mass density (330 K, 30000 kPa): 1633.4 ± 1.3 kg/m3 and 1633.5 ± 1.3 kg/m3 | mass density (330 K, 34990 kPa): 1643.6 ± 1.4 kg/m3 and 1643.5 ± 1.4 kg/m3 | mass density (330 K, 35000 kPa): 1643.4 ± 1.4 kg/m3 | mass density (330 K, 40000 kPa): 1653.1 ± 1.5 kg/m3 and 1652.8 ± 1.5 kg/m3 and 1652.9 ± 1.5 kg/m3 | mass density (330 K, 44990 kPa): 1661.8 ± 1.6 kg/m3 and 1661.9 ± 1.6 kg/m3 | mass density (330 K, 45000 kPa): 1662 ± 1.6 kg/m3 | mass density (330 K, 49980 kPa): 1670.4 ± 1.7 kg/m3 | mass density (330 K, 49990 kPa): 1670.3 ± 1.7 kg/m3 | mass density (330 K, 50010 kPa): 1670.6 ± 1.7 kg/m3 | mass density (350 K, 500 kPa): 1511.4 ± 0.9 kg/m3 and 1511.5 ± 0.9 kg/m3 | mass density (350 K, 510 kPa): 1511.6 ± 0.9 kg/m3 | mass density (350 K, 990 kPa): 1513.6 ± 0.9 kg/m3 | mass density (350 K, 1000 kPa): 1513.7 ± 0.9 kg/m3 and 1513.5 ± 0.9 kg/m3 | mass density (350 K, 1990 kPa): 1517.8 ± 0.9 kg/m3 | mass density (350 K, 2000 kPa): 1517.6 ± 0.9 kg/m3 and 1517.8 ± 0.9 kg/m3 | mass density (350 K, 2990 kPa): 1521.8 ± 0.9 kg/m3 | mass density (350 K, 3000 kPa): 1521.9 ± 0.9 kg/m3 and 1521.7 ± 0.9 kg/m3 | mass density (350 K, 4000 kPa): 1525.8 ± 0.9 kg/m3 and 1525.6 ± 0.9 kg/m3 and 1525.7 ± 0.9 kg/m3 | mass density (350 K, 4990 kPa): 1529.4 ± 0.9 kg/m3 | mass density (350 K, 5000 kPa): 1529.6 ± 0.9 kg/m3 and 1529.5 ± 0.9 kg/m3 | mass density (350 K, 9990 kPa): 1547.1 ± 0.9 kg/m3 | mass density (350 K, 10000 kPa): 1546.9 ± 0.9 kg/m3 and 1547 ± 0.9 kg/m3 | mass density (350 K, 15000 kPa): 1562.7 ± 1 kg/m3 and 1562.5 ± 1 kg/m3 and 1562.6 ± 1 kg/m3 | mass density (350 K, 19990 kPa): 1576.5 ± 1.1 kg/m3 and 1576.6 ± 1.1 kg/m3 | mass density (350 K, 20000 kPa): 1576.8 ± 1.1 kg/m3 | mass density (350 K, 24990 kPa): 1589.6 ± 1.1 kg/m3 and 1589.4 ± 1.1 kg/m3 and 1589.5 ± 1.1 kg/m3 | mass density (350 K, 29990 kPa): 1601.3 ± 1.2 kg/m3 | mass density (350 K, 30000 kPa): 1601.5 ± 1.2 kg/m3 and 1601.4 ± 1.2 kg/m3 | mass density (350 K, 34990 kPa): 1612.3 ± 1.3 kg/m3 and 1612.4 ± 1.3 kg/m3 | mass density (350 K, 35000 kPa): 1612.6 ± 1.3 kg/m3
